From patent publication US20250101013A1, “FUNCTIONALIZED AMINOTHIAZOLES” (LEADXPRO AG, priority 2022, published 2025)

Tests used:
Conditions in all cases: *Measured by radioligand binding
[1] = biological target: human A2B receptor (Homo sapiens (Human), UniProt P29275); test: Radioligand binding assay, A2B ([3H]-DPCPX, HEK293 membranes)
Description: (§1) A filtration binding assay was performed for adenosine receptors A1, A2A, A2B and A3. Radioligand binding competition assay was done in duplicate in the wells of a 96-well plate (Master Block, Greiner, 786201) containing binding buffer, receptor membrane extracts, a fixed concentration of tracer, and test compound at increasing concentrations. In order to eliminate effect of buffer components, binding buffer was the same for all four receptors and contained: 50 mM Tris-HCl pH 7.4, 5 mM MgCl, 1 mM EDTA, 150 mM NaCl, 0.1% Na-azide, and 5 U/ml adenosine-deaminase. Nonspecific binding was minimized by co-incubation with 200-fold excess of cold competitor. In all radioligand binding experiments, the samples were incubated in a final volume of 0.1 ml of binding buffer for 60 minutes at 25° C. and then filtered over Unifilter plates (Perkin Elmer) pre-treated for 2 hours to limit tracer non-specific binding. Filters were washed five times with 0.5 ml of ice-cold washing buffer (50 mM Tris-HCl pH 7.4, 5 mM MgCl, 1 mM EDTA), and 50 μL of Microscint 20 (Perkin Elmer) were added to each filter. The plates were incubated 15 min at room temperature on an orbital shaker and then counted with a TopCount™ for 1 min/well.
For A2B receptor, the assay was carried with [3H]-DPCPX and membranes prepared from HEK293 cells transfected with human A2B receptor (Euroscreen FAST-003B).

[2] = biological target: human A1 receptor (Homo sapiens (Human), UniProt P30542); test: Radioligand binding assay, A1 ([3H]-DPCPX, CHO-K1 membranes)
Description: as §1
For A1 receptor, the assay was performed with [3H]-DPCPX and membranes from CHO-Kl cells transfected with human A1 receptor (Euroscreen FAST-001B).

[3] = biological target: human A3 receptor (Homo sapiens (Human), UniProt P0DMS8); test: Radioligand binding assay, A3 ([125I]-MECA, CHO-K1 membranes)
Description: as §1
For A3 receptor, the assay was carried out with [125IJ-MECA and membranes from CHO-Kl cells transfected with human A3 receptor (Euroscreen FAST-004B).

[4] = biological target: human A2A receptor (Homo sapiens (Human), UniProt P29274); test: Radioligand binding assay, A2A ([3H]-NECA, HEK293 membranes)
Description: as §1
For A2A receptor, the assay was performed with [3H-NECA and membranes from HEK293 cells transfected with human A2A receptor (Euroscreen FAST-002B).

human A1 receptor, sequence (P30542 whole entry): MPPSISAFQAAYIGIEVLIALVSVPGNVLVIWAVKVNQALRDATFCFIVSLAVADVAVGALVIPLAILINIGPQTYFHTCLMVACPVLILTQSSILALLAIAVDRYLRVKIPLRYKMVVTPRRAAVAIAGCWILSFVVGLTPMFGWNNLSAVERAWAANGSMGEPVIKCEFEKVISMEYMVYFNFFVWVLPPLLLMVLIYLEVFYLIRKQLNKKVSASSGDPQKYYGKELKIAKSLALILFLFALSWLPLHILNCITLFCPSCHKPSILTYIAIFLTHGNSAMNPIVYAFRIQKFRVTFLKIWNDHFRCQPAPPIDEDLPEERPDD
human A2A receptor, sequence (P29274 whole entry): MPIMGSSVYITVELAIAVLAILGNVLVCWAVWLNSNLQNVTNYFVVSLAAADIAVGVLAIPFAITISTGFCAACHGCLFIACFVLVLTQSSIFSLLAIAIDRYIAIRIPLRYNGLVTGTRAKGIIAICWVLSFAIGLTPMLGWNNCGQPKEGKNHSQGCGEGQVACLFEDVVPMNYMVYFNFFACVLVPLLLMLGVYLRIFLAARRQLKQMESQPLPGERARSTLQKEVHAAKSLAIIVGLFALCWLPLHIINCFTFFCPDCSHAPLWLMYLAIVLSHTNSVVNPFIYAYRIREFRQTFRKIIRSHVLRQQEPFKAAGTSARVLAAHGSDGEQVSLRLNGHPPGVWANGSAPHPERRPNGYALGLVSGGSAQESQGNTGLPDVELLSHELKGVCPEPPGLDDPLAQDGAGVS
human A3 receptor, sequence (P0DMS8 whole entry): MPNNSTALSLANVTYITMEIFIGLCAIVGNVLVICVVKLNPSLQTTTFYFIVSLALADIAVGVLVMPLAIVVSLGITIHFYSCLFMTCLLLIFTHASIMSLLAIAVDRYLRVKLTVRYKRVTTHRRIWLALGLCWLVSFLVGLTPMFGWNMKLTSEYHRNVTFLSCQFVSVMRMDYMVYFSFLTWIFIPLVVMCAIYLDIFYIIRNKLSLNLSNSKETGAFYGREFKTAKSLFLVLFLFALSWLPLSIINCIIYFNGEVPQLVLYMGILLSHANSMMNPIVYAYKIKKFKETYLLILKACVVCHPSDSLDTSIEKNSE
human A2B receptor, sequence (P29275 whole entry): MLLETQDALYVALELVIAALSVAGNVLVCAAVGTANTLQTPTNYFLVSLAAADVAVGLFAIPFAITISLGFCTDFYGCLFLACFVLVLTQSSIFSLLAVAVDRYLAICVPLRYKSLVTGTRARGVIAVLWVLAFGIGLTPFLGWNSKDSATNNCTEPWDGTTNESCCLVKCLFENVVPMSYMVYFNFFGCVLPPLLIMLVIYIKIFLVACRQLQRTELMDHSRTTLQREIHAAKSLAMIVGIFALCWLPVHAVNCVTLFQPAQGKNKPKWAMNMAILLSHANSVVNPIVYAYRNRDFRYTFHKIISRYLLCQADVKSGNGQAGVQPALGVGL

Structure (SMILES): Fc1ccccc1-c1nc(Nc2n[nH]c(C3CCC3)n2)sc1-c1ccncc1F [Compound 1, 5-Cyclobutyl-N-[4-(2-fluorophenyl)-5-(3-fluoropyridin-4-yl)-1,3-thiazol-2-yl]-1H-1,2,4-triazol-3-amine]
- EC50 [1]: 2.2 nM
- EC50 [2]: < 5 nM
- EC50 [3]: > 10000 nM
- EC50 [4]: > 10000 nM
